PubChem BioAssay AID1645866 (Buhrlage Lab, Dana-Farber Cancer Institute and Novartis …, 2021)
pIC50: −log10 of the molar value. Calls of active or inactive are those of the source.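 Rule for the calls: active = in confirmatory dose-response testing, peak deubiquitinase inhibition of 30% or more; inactive = the rest.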

Target: Ubiquitin carboxyl-terminal hydrolase 28 (Homo sapiens) (UniProt Q96RU2)
Experiment: Ubiquitin-specific peptidase 28 DUB inhibitors, biochemical concentration-dependence assay, validation of primary screening hits (AID 1645866)
Settings: purified USP28, ubiquitin-rhodamine fluorescence, 30 min

Sequence of Ubiquitin carboxyl-terminal hydrolase 28 (Homo sapiens) (Q96RU2 whole entry, looked up): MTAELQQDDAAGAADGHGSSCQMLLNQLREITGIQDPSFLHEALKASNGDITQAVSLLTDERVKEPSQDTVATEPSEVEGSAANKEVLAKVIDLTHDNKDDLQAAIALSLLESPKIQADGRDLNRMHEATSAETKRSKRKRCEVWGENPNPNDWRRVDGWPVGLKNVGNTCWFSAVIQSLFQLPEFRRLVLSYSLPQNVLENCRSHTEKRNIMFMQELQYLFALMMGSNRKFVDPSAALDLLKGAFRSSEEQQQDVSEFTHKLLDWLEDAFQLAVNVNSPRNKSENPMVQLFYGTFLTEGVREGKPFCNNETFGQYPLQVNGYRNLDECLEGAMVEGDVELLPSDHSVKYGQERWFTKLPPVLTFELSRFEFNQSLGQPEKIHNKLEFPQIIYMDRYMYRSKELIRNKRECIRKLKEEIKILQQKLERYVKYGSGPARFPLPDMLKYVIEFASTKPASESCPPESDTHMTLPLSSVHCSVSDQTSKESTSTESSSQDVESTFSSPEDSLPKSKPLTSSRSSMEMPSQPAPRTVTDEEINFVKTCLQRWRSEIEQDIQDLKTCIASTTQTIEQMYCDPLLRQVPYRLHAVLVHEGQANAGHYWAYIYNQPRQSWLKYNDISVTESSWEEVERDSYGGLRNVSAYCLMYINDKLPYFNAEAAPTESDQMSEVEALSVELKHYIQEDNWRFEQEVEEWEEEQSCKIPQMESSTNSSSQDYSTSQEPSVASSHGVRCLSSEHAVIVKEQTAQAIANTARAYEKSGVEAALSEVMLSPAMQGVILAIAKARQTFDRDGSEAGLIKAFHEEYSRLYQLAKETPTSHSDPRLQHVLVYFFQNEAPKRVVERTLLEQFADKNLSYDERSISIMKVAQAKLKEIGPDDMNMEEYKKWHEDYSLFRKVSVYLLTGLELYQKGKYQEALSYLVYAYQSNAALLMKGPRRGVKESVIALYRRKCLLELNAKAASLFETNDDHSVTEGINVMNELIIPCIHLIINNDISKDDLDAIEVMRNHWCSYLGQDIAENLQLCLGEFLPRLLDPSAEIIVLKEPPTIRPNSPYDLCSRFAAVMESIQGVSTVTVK

| Structure (SMILES) | IC50 | pIC50 |
| --- | --- | --- |
| CCN(C(=O)c1cc2c(Cl)nc3ccccc3c2s1)c1ccccc1F | > 50 µM (inactive) | – |
| O=C(Nc1ccccc1Br)c1ccn(COc2ccccc2F)n1 | – | 4.74 |
| CC(=O)c1cccc(NC(=O)c2ccc(CN(c3ccc(C)c(C)c3)S(C)(=O)=O)cc2)c1 | – | 5.66 |
| N#C/C(=C\c1ccc(-c2cc(Cl)ccc2Cl)o1)c1nnc2n1CCCCC2 | > 50 µM (inactive) | – |
| Cc1ccc2c(c1C)NC(=O)[C@]21[C@@H]2C(=O)N(c3cccc(Cl)c3)C(=O)[C@@H]2[C@@H]2CCCN21 | > 50 µM (inactive) | – |
| COC(=O)c1cc2c(ccn2C)n1CC(=O)NC1CC1 | > 50 µM (inactive) | – |
| Cc1cccc(-c2nc3n(CC(=O)Nc4ccc(Cl)cc4)c(C)cc(=O)n3n2)c1 | – | 6.01 |
| Cc1cccc(NC(=O)Nc2ccc(C)n(CC(=O)Nc3ccccc3)c2=O)c1 | – | 5.33 |
| O=C(Nc1ccc(Cl)cc1)Nc1cccn2ncnc12 | – | 4.93 |
| CC1(O)CC(=O)c2c(cc3cc(O)cc(O)c3c2O)C1 (configuration not stated) | – | 7.17 |
| COc1ccc(-c2nc(SCC(=O)Nc3ccc(C(C)=O)cc3)n[nH]2)cc1 | – | 4.81 |
| COc1ccc(N2C(=O)[C@@H]3[C@H]4c5ccccc5C=CN4C(C(=O)Nc4ccc5c(c4)OCO5)[C@@H]3C2=O)cc1 (some centres not stated) | > 50 µM (inactive) | – |
| Cc1noc(NS(=O)(=O)c2ccc(NC(=O)CSc3ccc4ccccc4c3)cc2)c1C | > 50 µM (inactive) | – |
| COc1ccc(NC(=O)c2nc3n(n2)-c2ccccc2S(=O)(=O)N3)cn1 | > 50 µM (inactive) | – |
| CN1C(=O)[C@]23CC4=CC=C[C@H](O)[C@H]4N2C(=O)[C@@]1(CO)SS3 | > 50 µM (inactive) | – |
| CCn1c(=O)c2ccccc2n(Cc2nc(-c3ccccc3OC)no2)c1=O | > 50 µM (inactive) | – |
| O=C(Nc1ccc(F)cc1)Nc1ccccc1OCc1cc(=O)n2ccccc2n1 | – | 5.03 |
| Fc1cc(F)c2[nH]cc(-c3nnnn3-c3ccc4ccccc4c3)c2c1 | – | 4.66 |
| COC(=O)COc1ccc(/C=N/NC(=O)c2ccc(CN3CCc4ccccc4C3)cc2)cc1 | – | 4.95 |
| COc1cccc(N2C(=O)N(CC(=O)NCc3ccc(Cl)cc3)c3ccccc3S2(=O)=O)c1 | – | 4.72 |
| COc1ccc(Nc2nc3c(S(=O)(=O)c4ccc(C)cc4)nnn3c3ccsc23)c(OC)c1 | – | 5.70 |
| COc1cc([C@@H]2c3cc4c(cc3C[C@@H]3COC(=O)[C@H]32)OCO4)cc(OC)c1OC | – | 4.73 |
| COc1ccc(C(=O)Nc2ccc3c(c2)Sc2ncccc2C(=O)N3C)cn1 | > 50 µM (inactive) | – |
| CC1CCCCN1c1nc(F)c2c(c1F)S(=O)(=O)CCN2Cc1ccccc1 (configuration not stated) | > 50 µM (inactive) | – |

| Structure (SMILES) | IC50 | pIC50 |
| --- | --- | --- |
| COc1cccc(CCNC(=O)CCn2c(=O)c(C)nc3cc(C)c(C)cc32)c1 | > 50 µM (inactive) | – |
| O=C(COC(=O)CCc1ccc(S(=O)(=O)N2CCOCC2)cc1)Nc1ccc2c(c1)OCCO2 | – | 5.14 |
| N#Cc1cccc(S(=O)(=O)N2CCc3nc4ccccc4n3CC2)c1 | – | 4.66 |
| COc1ccc(CCNC(=O)c2c(N)n(-c3cccc(Cl)c3)c3nc4ccccc4nc23)cc1 | > 50 µM (inactive) | – |
| C[C@@H]1OC2=C(C(=O)c3cccc(O)c3C2=O)[C@H](O)[C@@H]1O | – | 5.55 |
| CCCCNC(=O)c1cc2cccnc2n(Cc2ccccc2)c1=O | > 50 µM (inactive) | – |
| COc1ccc2[nH]c3c(c2c1)CCN1C(=O)N(c2ccccc2C(=O)NCc2ccccc2)C(=O)[C@]31C | – | 4.33 |
| CC(=O)c1cccc(NC(=O)c2ccc(-c3csc(C)n3)cc2)c1 | – | 5.50 |
| CN1C(=O)c2cc(NC(=O)c3ccccc3Cl)ccc2Oc2ccccc21 | – | 5.90 |
| O=C(Nc1oc2ccccc2c(=O)c1-c1ccc2c(c1)OCO2)C1CCCCC1 | – | 4.48 |
| COc1cc(OC)c(NC(=O)Cn2c(=O)n(Cc3ccccc3Cl)c(=O)c3cc(OC)c(OC)cc32)cc1Cl | – | 5.48 |
| Cc1cc(C(=O)CSc2nc3ccccc3[nH]2)c(C)n1Cc1ccco1 | – | 4.44 |
| Cc1ccc(NC(=O)c2cnc(N3CCOCC3)nc2)cc1F | – | 4.48 |
| Cc1ccc(NCc2cc3c(C(C)(C)C)nn(-c4ccc(Cl)cc4)c3[nH]c2=O)cc1 | – | 4.63 |
| O=C(Nc1cc(F)c2nc(N3CCOCC3)ccc2c1)c1ccc(Br)o1 | – | 4.43 |
| CC(=O)c1sc(NC(=O)c2ccccc2-c2ccc(C(F)(F)F)cc2)nc1C | – | 4.73 |
| COCCn1c(=O)[nH]c2cc(C(=O)NCCNc3ccc([N+](=O)[O-])cc3C#N)ccc2c1=O | – | 5.69 |
| Nc1c(C(=O)NCCc2ccccc2)nnn1-c1ccc(F)cc1 | – | 4.37 |
| Cc1cc(Cl)ccc1Nc1nc(Nc2cccc(F)c2)nc2nccnc12 | > 50 µM (inactive) | – |
| O=C(Nc1cc(F)c2nc(N3CCOCC3)ccc2c1)C1CC1 | – | 4.35 |
| Fc1ccccc1Cc1nc(-c2ccc3nncn3c2)no1 | – | 5.01 |
| O=C1c2c(O)cccc2C2(Oc3cccc4cccc(c34)O2)C2OC12 (configuration not stated) | – | 4.70 |
| Cc1cnc2nc3c(cc2c1)CN(S(=O)(=O)c1cc(F)ccc1C)CC3 | > 50 µM (inactive) | – |
| Cc1ccc(-c2cn(CC(=O)N3CCN(c4ccccn4)CC3)c(=O)o2)cc1 | – | 4.78 |

| Structure (SMILES) | IC50 | pIC50 |
| --- | --- | --- |
| Cn1cc(-c2cnc(-c3cccc(F)c3)nc2)cc1C(=O)NCc1cccnc1 | – | 4.43 |
| CC1(C)OC2=C(C(=O)c3cc(O)cc(O)c3C2=O)c2cc(CO)c(O)cc21 | – | 4.73 |
| N#Cc1c(SCCO)nc(N2CCCC2)c2c1CCCC2 | – | 5.19 |
| CC(C)N1CC2CN(Cc3ccc(Cl)cc3)CCN2Cc2ccccc21 (configuration not stated) | > 50 µM (inactive) | – |
| COc1ccc(Cl)cc1NC(=O)Cn1c(=O)cc(C)c2c(C)nn(-c3ccccc3)c21 | – | 5.26 |
| O=C(NC1(O)C(=O)c2ccccc2C1=O)c1ccc(-c2csnn2)cc1 | – | 4.44 |
| CC(C)Cc1nc2sc3c(NCCN4CCOCC4)ncnc3c2c2c1CCC2 | – | 6.08 |
| O=C(/C=C/c1ccc(F)cc1)N1CCC(Cc2ccccc2)CC1 | – | 4.32 |
| C[C@@H](C(=O)NCc1ccc(F)cc1)N1C(=O)N2CCc3c([nH]c4ccccc34)[C@@]2(C)C1=O | – | 4.83 |
| COc1ccc(NC(=O)Cn2cc(C(=O)c3ccc(C)cc3)c(=O)c3ccccc32)cc1 | – | 5.57 |
| CN(Cc1ccccc1)S(=O)(=O)c1ccc2[nH]cc(C(=O)NCc3cccs3)c(=O)c2c1 | – | 5.82 |
| COc1cccc(NC(=O)Nc2ccc(CCc3nc4ccccc4[nH]3)cc2)c1 | – | 5.20 |
| O=C(NCCc1ccccc1)c1nnn(Cc2cccc(Cl)c2)c1-n1cccc1 | – | 5.86 |
| COc1ccc(C(=O)CSc2ccc3nnc(CCNC(=O)c4ccc(OC)cc4)n3n2)cc1 | > 50 µM (inactive) | – |
| Cn1c(-c2nnc(SCC(=O)Nc3ccccc3F)o2)cc2ccccc21 | – | 4.75 |
| CN(C)c1cc(-n2cnc(C(=O)NCc3ccccc3Cl)c2)ncn1 | – | 4.70 |
| COc1ccc(OC)c(NC(=O)c2cc(Cl)ccc2OC)c1 | – | 5.78 |
| Cc1ccc2c(C)nc(Nc3ncc4c(n3)CC(c3ccco3)CC4=O)nc2c1 (configuration not stated) | – | > 7.30 |
| CC(C(=O)NCc1ccc(F)cc1)n1cccc1C(=O)c1ccccc1 (configuration not stated) | > 50 µM (inactive) | – |
| O=C(COc1cccc(C(=O)NCc2ccccc2)c1)Nc1ccc(Oc2ccccc2)cc1 | – | 4.55 |
| O=C(NCc1ccc2c(c1)OCO2)c1[nH]nc2c1COc1ccccc1-2 | – | 5.11 |
| Cc1sc2ncnc(OCc3ccc(F)cc3Cl)c2c1C | – | 6.36 |
| O=c1[nH]c(C2CCN(S(=O)(=O)c3ccc(S(=O)(=O)NC4CCCCC4)cc3)CC2)nc2c1nnn2Cc1c(F)cccc1Cl | – | 4.77 |
| COCCNC(=O)c1ccnn1-c1ccc2ccc(-c3cccnc3)cn12 | > 50 µM (inactive) | – |
